Reference: patent publication US20220241378A1, “COMPOSITIONS AND METHODS FOR TREATMENT OF CHRONIC GRANULOMATOUS DISEASE” (priority 2019, published 2022)

Tested on: C57BL/6 and p47phox-/- mice infected intranasally with A. fumigatus conidia
Assay: Lung inflammation model: C57BL/6 and p47phox-/- mice infected intranasally with A. fumigatus
Assay type: in vivo
Conditions: p47phox-/- aspergillosis mice
Protocol: In vivo models mimicking human pathology such as lung and gut inflammation were prepared. A model of lung inflammation was tested using C57BL/6 and p47phox-/- mice. The mice were infected with A. fumigatus intranasally and treated them with Tβ4 for 7 consecutive days starting a week after the infection. LC3-II (FIG. 1F) and DAPK1 (FIG. 1G) expression were both defective in p47phox-/- mice, but restored by Tβ4 and ablated (LC3-II) upon siTβ4 (FIGS. 10A and 10B). In addition, gut inflammation was tested using the same mouse model. Acute colitis in p47phox-/- mice was initiated by administering […] in drinking water for 7 days followed by 7 days of DSS-free autoclaved water. Subsequently, Tβ4 was therapeutically administered daily for 7 days, after DSS treatment, at the time at which mice started to lose weight. Consistent with previous findings (de Luca et al., 2014), LC3-II (FIG. 1H) and DAPK1 (FIG. 1I) expression were both defective in the colon ofp47phox-/- mice with colitis as opposed to WT mice but restored upon treatment with T134 (FIGS. 1H and 1I). DAPK1 expression in colon lysates of C57BL/6 and p47^phox-/- mice subjected to DSS-induced colitis for a week and treated intraperitoneally with 5 mg/kg Tβ4 for 7 consecutive days after DSS treatment, n=6-10 mice per group. Data are presented as mean ±SD and are representative of two experiments. Mice were categorized as Naive (uninfected or untreated mice) or None (infected mice). For immunoblotting, normalization was performed on mouse β-actin or Gapdh and corresponding pixel density or ratio is depicted. For immunofluorescence, nuclei were counterstained with DAPI. Photographs were taken with a high-resolution microscope (Olympus BX51), 40× and 100× magnification. LC3 mean fluorescence intensity (MFI) was measured with the ImageJ software. In FIGS. 1F-1H, n=6-10 mice per group. Data are presented as mean ±SD and are representative of two experiments. Naïve, uninfected or untreated mice. None, infected mice.
Viable conidia from the A. fumigatus Af293 strain were obtained as described (De Luca et al., 2012). Mice were anesthetized in a plastic cage by inhalation of 3% isoflurane (Forane Abbot) in oxygen before intranasal instillation of 2×10^7 resting conidia/20 μl saline. For survival curves, p47^phox-/- mice were challenged with […] conidia/20 μl saline. Tβ4 was administered intraperitoneally (i.p.) at the dose of 5 mg/kg at an effective dose as described (Badamchian et al., Thymosin beta(4) reduces lethality and down-regulates inflammatory mediators in endotoxin-induced septic shock. Int Immunopharmacol, 2003 3(8): p. 1225-33), every day in concomitance with (days 0→7) or after (days 7→14) infection. DMOG (Merck Millipore) was administered i.p. at the dose of 8 mg/mouse concomitantly to the infection. For Hif1a silencing, each mouse received intranasal administration of 10 mg/kg unmodified siRNA [Duplex name mm.Ri.Hif1a.13.1 (IDT); 5′-[…]-3′; 3′-[…] -5′] and Tmsb4x silencing [Duplex name mm.Ri.Tmsb4x.13.1; 5′-[…]-3′; 3′-[…] -5′], or equivalent dose of nonspecific control siRNA duplex in a volume of 20 μl of duplex buffer (IDT). Intranasal siRNA was given once the day before infection and 1, 3 and 5 days after infection (Iannitti et al., 2013 Hypoxia promotes danger-mediated inflammation via receptor for advanced glycation end products in cystic fibrosis. Am J Respir Crit Care Med 188:1338-1350). It is known that lung-specific siRNA delivery can be achieved by intranasal administration without the use of viral vectors or transfection agents in vivo (Iannitti et al., 2013 Th17/Treg imbalance in murine cystic fibrosis is linked to indoleamine 2,3-dioxygenase deficiency but corrected by kynurenines. Am J Respir Crit Care Med 187:609-620). Mice were sacrificed 7 or 14 days post infection. Fungal burden was determined by qPCR and expressed as conidial equivalents (CE). Lung tissue was aseptically removed and homogenized in 3 ml of sterile saline. […]

## COC(=O)CNC(=O)C(=O)OC [DMOG, dimethyloxalylglycine, reference compound]
DMOG for 5 days (FIG. 7A)
  fungal burden: reduced
DMOG for 5 days (FIG. 7B)
  lung pathology: ameliorated
DMOG for 5 days (FIG. 7C)
  HIF-1α expression: increased
DMOG for 5 days (FIG. 7D)
  HIF-1α-responsive genes: up-regulated
